# Experimental data: US20060083794A1, “Use of an extract from the plant argania spinosa” (priority 2002, published 2006)
# System: 5-α-reductase
# Test: Metabolization of 14C testosterone to DHT in reconstructed epidermis (thin-layer chromatography, phosphoimager)
# Type: cell-based, human
# Conditions: Finasterid 10 μM; control = 100
# Protocol: • Epidermis SkinEthic (17 days, 0.63 cm^2) in culture, 37° C., 5% CO2 • Reference substance: Finasteride • Testosterone: [4-14-C]
# The epidermis was precultivated for 24 hours on plates with 24 positions. The experiments with the products and the reference substance Finasterid (10 μm) were carried out three times (3 epidermises per experiment). After treatment for 24 hours, the media of the subepidermis were renewed and replaced by 300 μl of fresh culture medium. 100 μl of radioactively marked testosterone solution were applied to the upper surface (horny layer) of the epidermis (TO). After another 24 hours, the subepidermis medium was removed for analysis.
# The steroids present in the culture medium were extracted for analysis of the metabolism and separated into their molecular derivatives by thin-layer chromatography (on silica gel). The quantity of transformed testosterone was determined by radioactive counting of the various spots using a phosphoimager.
smiles,measurement,value
"CC(C)(C)NC(=O)[C@H]1CC[C@H]2[C@@H]3CC[C@H]4NC(=O)C=C[C@]4(C)[C@H]3CC[C@]12C [Finasterid, Finasteride]",DHT formed in %,8%
